# Measured values from patent US20130236473A1, “THERAPEUTIC AGENTS AND PROPHYLACTIC AGENTS FOR SYMPTOMS ACCOMPANYING AUTOIMMUNE DISEASES, INFLAMMATORY DISEASES, ALLERGY DISEASES AND ORGAN TRANSPLANTS” (OSAKA UNIVERSITY, priority 2010, published 2013).
# System: IL-6 amplifier
# Assay: Example 2: PI3 kinase inhibitors, mIL-6 protein production on IL-6 amplifier activation in BC-1 cells (ELISA)
# Type: cell-based
# Settings: 24 hours, conditions (a) to (d), 0 or 100 ng/ml mouse epiregulin, LY294002 0.1-10, PIK75 0.01-1.0 micromole/L
# Protocol: 2×10^5 mouse BC-1 cells were cultured in an RPMI 1640 medium for 24 hours under each of the following conditions: • (a) in the presence of 10% FBS, • (b) with the addition of 50 ng/ml of hIL-6 protein and 50 ng/ml of hIL-6R protein (hereinafter referred to as “hIL-6/6R proteins”) and in the presence of 10% FBS, • (c) with the addition of 50 ng/ml of mIL-17A protein and in the presence of 10% FBS, • (d) with the addition of hIL-6/6R proteins at 50 ng/ml and mIL-17A protein at 50 ng/ml and in the presence of 10% FBS, • (e) in the absence of FBS, • (f) with the addition of hIL-6/6R proteins each at 50 ng/ml and in the absence of FBS, • (g) with the addition of 50 ng/ml of mIL-17A protein and in the absence of FBS, or • (h) with the addition of hIL-6/6R proteins each at 50 ng/ml and mIL-17A protein at 50 ng/ml and in the absence of FBS. […]
# After the culture, the production amount of mouse IL-6 protein under each condition was quantified by an ELISA method. […]
smiles,measurement,value
"O=c1cc(N2CCOCC2)oc2c(-c3ccccc3)cccc12 [LY294002, 2-(4-Morpholinyl)-8-phenyl-4H-1-benzopyran-4-one]",increase in the expression amount of mIL-6 protein due to the activation of IL-6 amplifier,can be suppressed
